Test results: ChEMBL document CHEMBL1201862, “PubChem BioAssay data set” (2004)
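96-well plates; 48 h exposure; 5 concentrations. Endpoints by linear interpolation between flanking doses. Not reached: highest tested concentration assigned. The concentration for 50% growth inhibition is given as GI50.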 Calls of active or inactive are those of the source. Cut-off read from the data, not from the text of the source: active = GI50 up to about 1.1 µM and inactive = higher.

Assays:
Test in all cases: DTP human tumour cell line panel, 48 h
[1] = tested on: A498
[2] = tested on: ACHN
[3] = tested on: HCC 2998
[4] = tested on: HCT-15
[5] = tested on: HOP-62
[6] = tested on: HOP-92
[7] = tested on: LOX IMVI
[8] = tested on: M14
[9] = tested on: MOLT-4
[10] = tested on: NCI-H23
[11] = tested on: NCI-H460
[12] = tested on: RPMI-8226
[13] = tested on: SN12C
[14] = tested on: SNB-75
[15] = tested on: SW-620
[16] = tested on: CCRF-CEM
[17] = tested on: COLO 205
[18] = tested on: OVCAR-8
[19] = tested on: UO-31

Structure (SMILES): CN(C)c1ccc(C2CC(=O)C(C#N)=C(c3ccccc3)NN2C)cc1 (stereo not given)
- GI50 [1]: 27.6 µM (inactive)
- GI50 [2]: 11.4 µM (inactive)
- GI50 [3]: 22.1 µM (inactive)
- GI50 [4]: 4.33 µM
- GI50 [5]: 12.8 µM (inactive)
- GI50 [6]: 21.1 µM (inactive)
- GI50 [7]: 4.93 µM (inactive)
- GI50 [8]: 5.04 µM (inactive)
- GI50 [9]: 8.47 µM (inactive)
- GI50 [10]: 32.4 µM (inactive)
- GI50 [11]: 5.52 µM (inactive)
- GI50 [12]: 13.9 µM (inactive)
- GI50 [13]: 13.6 µM (inactive)
- GI50 [14]: 2.05 µM (inactive)
- GI50 [15]: 3.97 µM (inactive)

Structure (SMILES): CCn1c(C)nn2c(=O)c3ccccc3nc2c1=O
- GI50 [1]: > 100 µM (inactive)
- GI50 [2]: > 100 µM (inactive)
- GI50 [16]: > 100 µM (inactive)
- GI50 [17]: > 100 µM (inactive)
- GI50 [3]: > 100 µM (inactive)
- GI50 [4]: > 100 µM
- GI50 [5]: > 100 µM (inactive)
- GI50 [6]: 59.7 µM (inactive)
- GI50 [7]: > 100 µM (inactive)
- GI50 [8]: > 100 µM (inactive)
- GI50 [9]: > 100 µM (inactive)
- GI50 [10]: > 100 µM (inactive)
- GI50 [11]: > 100 µM (inactive)
- GI50 [18]: > 100 µM (inactive)
- GI50 [12]: > 100 µM (inactive)
- GI50 [14]: > 100 µM (inactive)
- GI50 [15]: > 100 µM (inactive)

Structure (SMILES): COc1ccc(/C=C(\C(C)=O)C(=O)Nc2ccccc2)cc1
- GI50 [2]: > 100 µM (inactive)
- GI50 [16]: > 100 µM (inactive)
- GI50 [3]: > 100 µM (inactive)
- GI50 [4]: > 100 µM
- GI50 [5]: > 100 µM (inactive)
- GI50 [6]: > 100 µM (inactive)
- GI50 [7]: > 100 µM (inactive)
- GI50 [8]: > 100 µM (inactive)
- GI50 [9]: > 100 µM (inactive)
- GI50 [10]: > 100 µM (inactive)
- GI50 [11]: > 100 µM (inactive)
- GI50 [18]: > 100 µM (inactive)
- GI50 [12]: > 100 µM (inactive)
- GI50 [13]: > 100 µM (inactive)
- GI50 [15]: > 100 µM (inactive)
- GI50 [19]: > 100 µM (inactive)

Structure (SMILES): COc1cc(C2SCC(=O)N2NC(=O)c2ccc(NC(C)=O)cc2OC)ccc1O (stereo not given)
- GI50 [1]: 7.59 µM (inactive)
- GI50 [2]: 63 µM (inactive)
- GI50 [16]: > 100 µM (inactive)
- GI50 [17]: > 100 µM (inactive)
- GI50 [4]: > 100 µM
- GI50 [5]: 4.12 µM (inactive)
- GI50 [6]: 29.4 µM (inactive)
- GI50 [7]: > 100 µM (inactive)
- GI50 [8]: > 100 µM (inactive)
- GI50 [9]: > 100 µM (inactive)
- GI50 [10]: 92.9 µM (inactive)
- GI50 [18]: 25.2 µM (inactive)
- GI50 [12]: 0.883 µM (active)
- GI50 [13]: 36.5 µM (inactive)
- GI50 [14]: 23.7 µM (inactive)
- GI50 [15]: > 100 µM (inactive)
- GI50 [19]: > 100 µM (inactive)

Structure (SMILES): CC1=NN(c2ccccc2)C(=O)C1/N=N/c1ccc(Br)cc1C (stereo not given)
- GI50 [1]: 57 µM (inactive)
- GI50 [2]: 37.3 µM (inactive)
- GI50 [16]: > 100 µM (inactive)
- GI50 [17]: > 100 µM (inactive)
- GI50 [3]: > 100 µM (inactive)
- GI50 [4]: > 100 µM
- GI50 [5]: 27.9 µM (inactive)
- GI50 [6]: 38.6 µM (inactive)
- GI50 [8]: 90.4 µM (inactive)
- GI50 [9]: > 100 µM (inactive)
- GI50 [10]: 38 µM (inactive)
- GI50 [11]: > 100 µM (inactive)
- GI50 [18]: 95.9 µM (inactive)
- GI50 [12]: > 100 µM (inactive)
- GI50 [13]: > 100 µM (inactive)
- GI50 [14]: 19.1 µM (inactive)
- GI50 [15]: > 100 µM (inactive)

Structure (SMILES): COc1ccc(NC(=O)C(=O)c2c(O)c3ccc(O)cc3oc2=O)c([N+](=O)[O-])c1
- GI50 [1]: > 100 µM (inactive)
- GI50 [2]: > 100 µM (inactive)
- GI50 [16]: > 100 µM (inactive)
- GI50 [17]: > 100 µM (inactive)
- GI50 [3]: > 100 µM (inactive)
- GI50 [4]: > 100 µM
- GI50 [6]: > 100 µM (inactive)
- GI50 [7]: > 100 µM (inactive)
- GI50 [8]: > 100 µM (inactive)
- GI50 [9]: > 100 µM (inactive)
- GI50 [10]: > 100 µM (inactive)
- GI50 [11]: > 100 µM (inactive)
- GI50 [14]: > 100 µM (inactive)
- GI50 [15]: > 100 µM (inactive)
- GI50 [19]: > 100 µM (inactive)

Structure (SMILES): O=C(N/C=C1\C(=O)Oc2ccccc2C1=O)Nc1ccccc1
- GI50 [1]: 35.3 µM (inactive)
- GI50 [2]: 27.7 µM (inactive)
- GI50 [16]: > 100 µM (inactive)
- GI50 [17]: > 100 µM (inactive)
- GI50 [3]: 58.1 µM (inactive)
- GI50 [4]: 40.3 µM
- GI50 [6]: 25.8 µM (inactive)
- GI50 [7]: 42.4 µM (inactive)
- GI50 [8]: 52.8 µM (inactive)
- GI50 [9]: > 100 µM (inactive)
- GI50 [10]: 88.7 µM (inactive)
- GI50 [11]: 63.8 µM (inactive)
- GI50 [18]: 44.1 µM (inactive)
- GI50 [12]: > 100 µM (inactive)
- GI50 [13]: 32.8 µM (inactive)
- GI50 [14]: 12.8 µM (inactive)
- GI50 [15]: 61.2 µM (inactive)
- GI50 [19]: 28.3 µM (inactive)
